This note sets out measurements from patent US9924716B2, “Molecules having pesticidal utility, and intermediates, compositions, and processes, related thereto” (Dow AgroSciences LLC, priority 2016, dated 2018).

The test system of test [1] is Cabbage Looper (Trichoplusia ni, TRIPNI) second instar larvae. Description: Bioassay on Cabbage Looper (CL), 128-well diet tray assay. The class given is in vivo. The following applies: for mortality at 0.05 µg/cm2: 0.05 μg/cm^2 on artificial diet; for mortality at 0.05 µg/cm2 / mortality at 0.5 µg/cm2 / mortality at 5 µg/cm2: read-out: Percent control (or mortality) CL; for mortality at 0.5 µg/cm2: 0.5 μg/cm^2 on artificial diet; for mortality at 5 µg/cm2: 5 μg/cm^2 on artificial diet; for pest or weed control at 50 µg/cm2: Cabbage Looper, Table ABC Biological Results, read-out: CL rating. As to the method: (§1) Certain molecules disclosed in this document were tested against BAW, CEW, and CL using procedures described in the following examples. In the reporting of the results, the “BAW, CEW, & CL Rating Table” was used (See Table Section).
Bioassays on CL were conducted using a 128-well diet tray assay. one to five second instar CL larvae were placed in each well (3 mL) of the diet tray that had been previously filled with 1 mL of artificial diet to which 50 μg/cm^2 of the test molecule (dissolved in 50 μL of 90:10 acetone-water mixture) had been applied (to each of eight wells) and then allowed to dry. Trays were covered with a clear self-adhesive cover and held at 25° C., 14:10 light-dark for five to seven days. Percent mortality was recorded for the larvae in each well; activity in the eight wells was then averaged. The results are indicated in the table entitled “Table ABC: Biological Results” (See Table Section).
(§2) Bioassays on BAW and CL were conducted according to the procedures outlined in Example A: Bioassays on Beet Armyworm (“BAW”) and Cabbage Looper (“CL”) using the indicated concentrations.

In test [2] the test system is Beet Armyworm (Spodoptera exigua, LAPHEG) second instar larvae. Description: Bioassay on Beet Armyworm (BAW), 128-well diet tray assay. The class given is in vivo. The settings on record: for mortality at 0.05 µg/cm2: 0.05 μg/cm^2 on artificial diet; for mortality at 0.05 µg/cm2 / mortality at 0.5 µg/cm2 / mortality at 5 µg/cm2: read-out: Percent control (or mortality) BAW; for mortality at 0.5 µg/cm2: 0.5 μg/cm^2 on artificial diet; for mortality at 5 µg/cm2: 5 μg/cm^2 on artificial diet; for pest or weed control at 50 µg/cm2: Beet Armyworm, Table ABC Biological Results, read-out: BAW rating. As to the method: as §1
Bioassays on BAW were conducted using a 128-well diet tray assay. one to five second instar BAW larvae were placed in each well (3 mL) of the diet tray that had been previously filled with 1 mL of artificial diet to which 50 μg/cm^2 of the test molecule (dissolved in 50 μL of 90:10 acetone-water mixture) had been applied (to each of eight wells) and then allowed to dry. Trays were covered with a clear self-adhesive cover and held at 25° C., 14:10 light-dark for five to seven days. Percent mortality was recorded for the larvae in each well; activity in the eight wells was then averaged. The results are indicated in the table entitled “Table ABC: Biological Results” (See Table Section).
as §2

For orientation: mortality means the percentage killed.

In the case of `C[C@H](NC(=O)CCC(F)(F)F)NC(=O)c1ccc(/C(F)=C/C(c2cc(Cl)c(Cl)c(Cl)c2)C(F)(F)F)cc1C(F)(F)F` (stereo partly drawn) [F1, 4-((Z)-1,4,4,4-tetrafluoro-3-(3,4,5-trichlorophenyl)but-1-en-1-yl)-N—((R)-1-(4,4,4-trifluorobutanamido)ethyl)-2-(trifluoromethyl)benzamide], in test [1], the mortality at 0.05 µg/cm2 was found to be 100%, the mortality at 0.5 µg/cm2 was 100%, the mortality at 5 µg/cm2 was found to be 100% and the pest or weed control at 50 µg/cm2 fell in the range of 50 to 100%. In test [2], the mortality at 0.05 µg/cm2 is 100%, the mortality at 0.5 µg/cm2 was found to be 100%, the mortality at 5 µg/cm2 turned out to be 100% and the pest or weed control at 50 µg/cm2 lay within 50 to 100%.
Regarding `Cc1cc(/C(F)=C/C(c2cc(Cl)c(Cl)c(Cl)c2)C(F)(F)F)ccc1C(=O)N[C@H](C)NC(=O)CCC(F)(F)F` (stereo partly drawn) [F2, 2-Methyl-4-((Z)-1,4,4,4-tetrafluoro-3-(3,4,5-trichlorophenyl)but-1-en-1-yl)-N—((R)-1-(4,4,4-trifluorobutanamido)ethyl)benzamide], in test [1], the mortality at 0.05 µg/cm2 was found to be 100%, the mortality at 0.5 µg/cm2 was 100%, the mortality at 5 µg/cm2 was determined as 100% and the pest or weed control at 50 µg/cm2 was in the range of 50 to 100%. For the same compound, in test [2], the mortality at 0.05 µg/cm2 worked out at 100%, the mortality at 0.5 µg/cm2 is 100%, the mortality at 5 µg/cm2 was determined as 100% and the pest or weed control at 50 µg/cm2 lay in the range of 50 to 100%.
In the case of `C[C@H](NC(=O)CCC(F)(F)F)NC(=O)c1ccc(/C(F)=C/C(c2cc(Cl)c(Cl)c(Cl)c2)C(F)(F)F)cc1Br` (stereo partly drawn) [F3, 2-Bromo-4-((Z)-1,4,4,4-tetrafluoro-3-(3,4,5-trichlorophenyl)but-1-en-1-yl)-N—((R)-1-(4,4,4-trifluorobutanamido)ethyl)benzamide], in test [1], the mortality at 0.05 µg/cm2 came out at 100%, the mortality at 0.5 µg/cm2 came to 100%, the mortality at 5 µg/cm2 stood at 100% and the pest or weed control at 50 µg/cm2 fell in the range of 50 to 100%. Moreover, in test [2], the mortality at 0.05 µg/cm2 came out at 100%, the mortality at 0.5 µg/cm2 came out at 100%, the mortality at 5 µg/cm2 worked out at 100% and the pest or weed control at 50 µg/cm2 lay within 50 to 100%.
For the compound `C[C@H](NC(=O)CC(F)(F)F)NC(=O)c1ccc(/C(F)=C/C(c2cc(Cl)c(Cl)c(Cl)c2)C(F)(F)F)cc1Br` (stereo partly drawn) [F4, 2-Bromo-4-((Z)-1,4,4,4-tetrafluoro-3-(3,4,5-trichlorophenyl)but-1-en-1-yl)-N—((R)-1-(3,3,3-trifluoropropanamido)ethyl)benzamide], in test [1], the mortality at 0.05 µg/cm2 was found to be 100%, the mortality at 0.5 µg/cm2 amounted to 100%, the mortality at 5 µg/cm2 was determined as 100% and the pest or weed control at 50 µg/cm2 fell in the range of 50 to 100%. Besides, in test [2], the mortality at 0.05 µg/cm2 came to 100%, the mortality at 0.5 µg/cm2 is 100%, the mortality at 5 µg/cm2 came to 100% and the pest or weed control at 50 µg/cm2 is 50 to 100%.
Consider `C[C@H](NC(=O)CC(F)(F)F)NC(=O)c1ccc(/C(F)=C/C(c2cc(Cl)c(Cl)c(Cl)c2)C(F)(F)F)cc1C(F)(F)F` (stereo partly drawn) [F5, 4-((Z)-1,4,4,4-Tetrafluoro-3-(3,4,5-trichlorophenyl)but-1-en-1-yl)-2-(trifluoromethyl)-N—((R)-1-(3,3,3-trifluoropropanamido)ethyl)benzamide], for which, in test [1], the mortality at 0.05 µg/cm2 was determined as 100%, the mortality at 0.5 µg/cm2 was determined as 100%, the mortality at 5 µg/cm2 worked out at 100% and the pest or weed control at 50 µg/cm2 was 50 to 100%. Further, in test [2], the mortality at 0.05 µg/cm2 was found to be 100%, the mortality at 0.5 µg/cm2 came out at 100%, the mortality at 5 µg/cm2 was found to be 100% and the pest or weed control at 50 µg/cm2 lay in the range of 50 to 100%.
Consider `Cc1cc(/C(F)=C/C(c2cc(Cl)c(Cl)c(Cl)c2)C(C)(F)F)ccc1C(=O)N[C@H](C)NC(=O)CC(F)(F)F` (stereo partly drawn) [F6, 2-Methyl-4-((Z)-1,4,4-trifluoro-3-(3,4,5-trichlorophenyl)pent-1-en-1-yl)-N—((R)-1-(3,3,3-trifluoropropanamido)ethyl)benzamide], for which the pest or weed control at 50 µg/cm2 in test [1] and in test [2] was 50 to 100% each time.
On to `C[C@H](NC(=O)CC(F)(F)F)NC(=O)c1ccc(/C(F)=C/C(c2cc(Cl)c(Cl)c(Cl)c2)C(F)(F)F)cc1Cl` (stereo partly drawn) [F7, 2-Chloro-4-((Z)-1,4,4,4-tetrafluoro-3-(3,4,5-trichlorophenyl)but-1-en-1-yl)-N—((R)-1-(3,3,3-trifluoropropanamido)ethyl)benzamide], for which, in test [1], the mortality at 0.05 µg/cm2 was found to be 100%, the mortality at 0.5 µg/cm2 stood at 100%, the mortality at 5 µg/cm2 was 100% and the pest or weed control at 50 µg/cm2 lay in the range of 50 to 100%. Moreover, in test [2], the mortality at 0.05 µg/cm2 amounted to 79%, the mortality at 0.5 µg/cm2 amounted to 100%, the mortality at 5 µg/cm2 was 100% and the pest or weed control at 50 µg/cm2 lay in the range of 50 to 100%.
In the case of `C[C@H](NC(=O)CC(F)(F)F)NC(=O)c1ccc(/C(F)=C/C(c2cc(Cl)c(Cl)c(Cl)c2)C(C)(F)F)cc1C(F)(F)F` (stereo partly drawn) [F8, 4-((Z)-1,4,4-Trifluoro-3-(3,4,5-trichlorophenyl)pent-1-en-1-yl)-2-(trifluoromethyl)-N—((R)-1-(3,3,3-trifluoropropanamido)ethyl)benzamide], the pest or weed control at 50 µg/cm2 in test [1] and in test [2] was 50 to 100% each time.
With `C[C@H](NC(=O)CCC(F)(F)F)NC(=O)c1ccc(/C(F)=C/C(c2cc(Cl)c(Cl)c(Cl)c2)C(F)(F)F)cc1Cl` (stereo partly drawn) [F9, 2-Chloro-4-((Z)-1,4,4,4-tetrafluoro-3-(3,4,5-trichlorophenyl)but-1-en-1-yl)-N—((R)-1-(4,4,4-trifluorobutanamido)ethyl)benzamide], in test [1], the mortality at 0.05 µg/cm2 came out at 100%, the mortality at 0.5 µg/cm2 is 100%, the mortality at 5 µg/cm2 was 100% and the pest or weed control at 50 µg/cm2 lay in the range of 50 to 100%. In test [2], the mortality at 0.05 µg/cm2 came out at 100%, the mortality at 0.5 µg/cm2 amounted to 100%, the mortality at 5 µg/cm2 was 100% and the pest or weed control at 50 µg/cm2 fell in the range of 50 to 100%.
As to `C[C@H](NC(=O)CCC(F)(F)F)NC(=O)c1ccc(/C(F)=C/C(c2cc(Cl)c(Cl)c(Cl)c2)C(C)(F)F)cc1C(F)(F)F` (stereo partly drawn) [F10, 4-((Z)-1,4,4-Trifluoro-3-(3,4,5-trichlorophenyl)pent-1-en-1-yl)-N—((R)-1-(4,4,4-trifluorobutanamido)ethyl)-2-(trifluoromethyl)benzamide], the pest or weed control at 50 µg/cm2 in test [1] and in test [2] was 50 to 100% each time.
Consider `CCC(F)(F)C(/C=C(\F)c1ccc(C(=O)N[C@H](C)NC(=O)CC(F)(F)F)c(C(F)(F)F)c1)c1cc(Cl)c(Cl)c(Cl)c1` (stereo partly drawn) [F20, 4-((Z)-1,4,4-Trifluoro-3-(3,4,5-trichlorophenyl)hex-1-en-1-yl)-2-(trifluoromethyl)-N—((R)-1-(3,3,3-trifluoropropanamido)ethyl)benzamide], for which the pest or weed control at 50 µg/cm2 in test [1] and in test [2] was 50 to 100% each time.
Consider `CCC(F)(F)C(/C=C(\F)c1ccc(C(=O)N[C@H](C)NC(=O)CCC(F)(F)F)c(C(F)(F)F)c1)c1cc(Cl)c(Cl)c(Cl)c1` (stereo partly drawn) [F21, 4-((Z)-1,4,4-Trifluoro-3-(3,4,5-trichlorophenyl)hex-1-en-1-yl)-N—((R)-1-(4,4,4-trifluorobutanamido)ethyl)-2-(trifluoromethyl)benzamide], for which the pest or weed control at 50 µg/cm2 in test [1] and in test [2] was 50 to 100% throughout.
Turning to `C[C@@H](NC(=O)c1ccc(/C(F)=C/C(c2cc(Cl)c(Cl)c(Cl)c2)C(F)(F)F)cc1C(F)(F)F)NC(=O)C1CC1` (stereo partly drawn) [F27, N—((R)-1-(cyclopropanecarboxamido)ethyl)-4-((Z)-1,4,4,4-tetrafluoro-3-(3,4,5-trichlorophenyl)but-1-en-1-yl)-2-(trifluoromethyl)benzamide], the pest or weed control at 50 µg/cm2 in test [1] and in test [2] was 50 to 100% in each case.
For `C[C@@H](NC(=O)c1ccc(/C(F)=C/C(c2cc(Cl)c(Cl)c(Cl)c2)C(F)(F)F)cc1C(F)(F)F)NS(=O)(=O)CC(F)(F)F` (stereo partly drawn) [F28, 4-((Z)-1,4,4,4-tetrafluoro-3-(3,4,5-trichlorophenyl)but-1-en-1-yl)-N—((S)-1-(2,2,2-trifluoroethylsulfonamido)ethyl)-2-(trifluoromethyl)benzamide], the pest or weed control at 50 µg/cm2 in test [1] and in test [2] was 50 to 100% in each case.
Regarding `C[C@H](NC(=O)NC1CC1)NC(=O)c1ccc(/C(F)=C/C(c2cc(Cl)c(Cl)c(Cl)c2)C(F)(F)F)cc1C(F)(F)F` (stereo partly drawn) [F29, N—((S)-1-(3-cyclopropylureido)ethyl)-4-((Z)-1,4,4,4-tetrafluoro-3-(3,4,5-trichlorophenyl)but-1-en-1-yl)-2-(trifluoromethyl)benzamide], the pest or weed control at 50 µg/cm2 in test [1] and in test [2] was 50 to 100% in each case.
